Experimental data as given in patent US20240239801A1, “PYRIMIDO[5,4,D]PYRIMIDINE COMPOUNDS, COMPOSITIONS COMPRISING THEM AND USES THEREOF” (Université de Montréal, priority 2021, published 2024).
Like-named read-outs stand apart in the source and are kept apart here.

Columns and labels:
BRAF = biological target: T1, BRAF (Homo sapiens, UniProt P15056); assay: BRAF kinase activity assay (ADP-Glo); assay type: biochemical
T1 construct: GST; purchased Millipore Sigma B4062-10UG
Method: (§1) Compound preparation: solid samples of each substances in 1dram vials were suspended in DMSO (Fisher Scientific) at a stock concentration of 20 mM. Stocks were kept at −20° C. and protected from light. If solubility of the compound at 20 mM appeared to be an issue, the initial concentration of the DMSO stock was changed to 10 mM or 5 mM.
(§2) In vitro enzymatic reactions were used for evaluating compounds intrinsic activity against BRAF, CRAF and ARAF. For BRAF and CRAF, 0.375 nM of purified GST-tagged kinases (cat #B4062-10UG and cat #R1656-10UG respectively from Millipore Sigma) were incubated with 75 nM of kinase-dead MEK1 substrate (cat #40075; BPS Bioscience) in the presence of 10 μM of Ultrapure ATP (cat #V9102; Promega; part V915A) with and without the test compound in a buffer containing 50 mM HEPES pH 7.5, 10 mM MgCl2, 1 mM EDTA, 0.01% Brij-35 and 2 mM DTT. Separate reactions were performed with the MEK1 substrate and ATP as a blank control. ARAF, kinase reactions were rigorously the same with the exception that kinase concentration was raised to 3.75 nM (cat #1768-0000-1; Reaction Biology).
(§3) For compound treatment, 5 μL/well of test substance solution are placed in a 384-well proxyplate (Perkin Elmer) and mixed with 2× concentrated kinase reactions. The dilution series is selected so that nine concentrations cover a range from 100 nM to 0.01 nM. […] The final concentration of DMSO in the assay is set at 0.05%.
(§4) BRAF and CRAF kinase reactions were carried out for a total of 2 hours at 30° C. and then stopped by ½ dilution in ADP-Glo Reagent (cat #V9102; Promega; part V912C). Reactions were then incubated for 1 h at room temperature before addition of one volume of Kinase Detection Reagent (cat #V9102; Promega; part V917A). Plates were then equilibrated at room temperature for 30 minutes before detection of luminescence on a Synergy Neo2 plate reader (Biotek). The effect of each compound dilution on BRAF and CRAF kinase activity was expressed as % inhibition and calculated as follows. First, the internal 100% inhibition control (average of luminescence in kinase reactions comprising kinase dead MEK1 substrate alone) was subtracted from each data point. The average of DMSO (vehicle) controls (set as 0% inhibition) was established and used to calculate % inhibition:
(§5) IC50 values were obtained by plotting the kinase inhibition values and fitting the dose-activity curves using a log(agonist) versus response−variable slope (four parameters) function using either GraphPadPrism (V7.0) or Dotmatics Screening Ultra platform. Standards included in the ARAF kinase assay were Belvarafenib (MedChem Express cat #HY-109080; CAS #1446113-23-0), LXH254 (MedChem Express cat #HY-112089; CAS #1800398-38-2) and BGB283 (cat #HY-18957; CAS #1446090-79-4).

CRAF = CRAF (Homo sapiens, UniProt P04049); assay: CRAF kinase activity assay (ADP-Glo); assay type: biochemical
Sequence of CRAF (P04049 whole entry): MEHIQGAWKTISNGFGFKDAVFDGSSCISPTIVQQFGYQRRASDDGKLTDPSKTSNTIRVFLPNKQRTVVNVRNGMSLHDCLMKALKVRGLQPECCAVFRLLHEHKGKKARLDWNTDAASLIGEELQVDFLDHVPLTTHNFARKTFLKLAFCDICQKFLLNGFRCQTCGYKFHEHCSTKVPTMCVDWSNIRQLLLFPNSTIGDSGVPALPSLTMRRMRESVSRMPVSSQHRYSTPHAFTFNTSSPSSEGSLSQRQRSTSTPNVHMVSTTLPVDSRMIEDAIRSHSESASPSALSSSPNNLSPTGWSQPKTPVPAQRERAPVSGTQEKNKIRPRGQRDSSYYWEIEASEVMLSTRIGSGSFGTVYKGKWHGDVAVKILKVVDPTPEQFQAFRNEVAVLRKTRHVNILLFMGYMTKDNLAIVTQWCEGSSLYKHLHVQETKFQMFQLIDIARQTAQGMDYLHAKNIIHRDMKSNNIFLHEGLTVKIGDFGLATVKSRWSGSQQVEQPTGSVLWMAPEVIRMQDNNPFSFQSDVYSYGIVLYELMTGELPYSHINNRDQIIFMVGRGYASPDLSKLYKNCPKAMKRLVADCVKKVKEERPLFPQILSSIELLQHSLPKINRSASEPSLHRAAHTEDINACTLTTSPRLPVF
Method: as §1, §2, §3, §4, §5

HCT116 pERK = assay: Phospho-ERK inhibition, AlphaLISA SureFire Ultra p-ERK 1/2; assay type: cell-based, human; conditions: for IC50: 1 h treatment; for HCT116 (Ymin %): lowest value of the pERK IC50 curve
Summary of the method: (§6)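 IC50 derived by four-parameter fitting of % inhibition, with DMSO as 0% and 1 μM trametinib subtracted as background. Signal is AlphaLISA p-ERK1/2 (Thr202/Tyr204) in lysates of overnight-seeded cells (RPMI-1640, 5% FBS) treated 1 h with ten concentrations from 30 or 10 μM to 0.33 nM, 0.5% DMSO.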

SW480 pERK = assay: as above; assay type: cell-based, human; conditions: for IC50: 1 h treatment; for SW480 (Ymin %): lowest value of the pERK IC50 curve
Summary of the method: as §6

ARAF = biological target: T2, ARAF (Homo sapiens, UniProt P10398); assay: ARAF kinase activity assay (AlphaLISA p-MEK detection); assay type: biochemical; conditions: Table A
T2 sequence (P10398 310-570 limits assumed): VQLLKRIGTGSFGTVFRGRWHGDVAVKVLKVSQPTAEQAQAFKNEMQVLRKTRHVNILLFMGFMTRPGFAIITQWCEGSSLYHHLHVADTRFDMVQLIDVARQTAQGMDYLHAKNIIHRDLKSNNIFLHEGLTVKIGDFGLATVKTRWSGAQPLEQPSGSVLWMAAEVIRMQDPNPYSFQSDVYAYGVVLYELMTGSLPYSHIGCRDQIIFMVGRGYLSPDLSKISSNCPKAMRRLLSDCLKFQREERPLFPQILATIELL
Method: as §1, §2, §3
ARAF kinase reactions were carried out for a total of 2 hours at 30° C. and then stopped by addition of EDTA at a final concentration of 40 mM. Reactions were then detected using the AlphaLISA® SureFire® Ultra™ p-MEK ½ (Ser218/222) (PerkinElmer) kit. Reactions were performed with 5 μL of kinase reaction according to the manufacturer's specifications in 384-well proxyplates (Perkin Elmer) followed by overnight incubation of the reactions at room temperature in a humidified chamber. After completion of the detection reactions, the signals were recorded on a Synergy Neo2 plate reader (Biotek) equipped with AlphaLISA® filters. The effect of each compound dilution on the pMEK signal generated by ARAF reactions was expressed in % inhibition and calculated as follows. An internal 100% inhibition control (average of luminescence in kinase reactions comprising kinase dead MEK1 substrate alone) was included in each plate to measure of pMEK background and was subtracted from each data point. The average of DMSO (vehicle) controls (set as 0% inhibition) was also established and used to calculate % inhibition:
as §5

[1] = Table 3, read-out: SW480 PERK IC50

T1 sequence (P15056 whole entry): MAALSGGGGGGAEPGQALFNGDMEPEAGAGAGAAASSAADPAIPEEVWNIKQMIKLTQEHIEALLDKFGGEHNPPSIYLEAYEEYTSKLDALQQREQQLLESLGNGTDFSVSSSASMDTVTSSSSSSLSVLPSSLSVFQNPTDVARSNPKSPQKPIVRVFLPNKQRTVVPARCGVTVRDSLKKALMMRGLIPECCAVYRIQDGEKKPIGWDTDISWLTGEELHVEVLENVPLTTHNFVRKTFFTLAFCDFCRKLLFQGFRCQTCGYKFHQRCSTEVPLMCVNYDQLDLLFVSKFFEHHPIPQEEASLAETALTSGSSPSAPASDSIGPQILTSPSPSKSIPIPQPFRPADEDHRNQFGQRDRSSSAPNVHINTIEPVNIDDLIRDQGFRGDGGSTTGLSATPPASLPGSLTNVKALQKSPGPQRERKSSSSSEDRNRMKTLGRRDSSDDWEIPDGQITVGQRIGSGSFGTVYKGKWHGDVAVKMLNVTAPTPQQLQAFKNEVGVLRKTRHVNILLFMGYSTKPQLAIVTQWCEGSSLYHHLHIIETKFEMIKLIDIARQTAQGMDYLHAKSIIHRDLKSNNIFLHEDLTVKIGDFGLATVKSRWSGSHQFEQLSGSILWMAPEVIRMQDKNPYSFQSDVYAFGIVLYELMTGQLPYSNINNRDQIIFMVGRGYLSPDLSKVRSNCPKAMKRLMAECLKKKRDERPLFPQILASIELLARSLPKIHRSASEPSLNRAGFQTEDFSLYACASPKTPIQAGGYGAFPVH

SMILES	IC50 (BRAF; Table 3)	IC50 (CRAF; Table 3)	IC50 (HCT116 pERK; Table 3)	HCT116 (Ymin %) (HCT116 pERK; Table 3)	SW480 (Ymin %) (SW480 pERK; Table 3)	also measured
Cc1ncn(-c2ncc3ncnc(Nc4c(F)ccc(NS(=O)(=O)c5ccc(Cl)cc5Cl)c4F)c3n2)c1C [Example 62]	1 to 10 nM	10 to 50 nM	1000 to 10000 nM	11%	2%	IC50 (SW480 pERK; [1]): 500 to 1000 nM
Cc1ccc(NC(=O)c2ccnc(C(F)(F)F)c2)cc1-c1cc(OCCO)nc(N2CCOCC2)c1 [LXH254, reference compound]						IC50 (ARAF): > 20 nM
O=C1CCc2c(Oc3ccc4c(c3)[C@@H]3[C@H](O4)[C@H]3c3nc4ccc(C(F)(F)F)cc4[nH]3)ccnc2N1 [BGB283, reference compound]						IC50 (ARAF): > 20 nM
Cc1c(F)cccc1S(=O)(=O)Nc1ccc(F)c(Nc2ncnc3cnc(-n4cnc5c(N)cccc54)nc23)c1F [Example 82]	1 to 10 nM	< 10 nM	< 500 nM	−10%	3.2%	IC50 (SW480 pERK; [1]): < 500 nM
COc1ccc(S(=O)(=O)Nc2ccc(F)c(Nc3ncnc4cnc(N5CC[C@H](F)C5)nc34)c2F)c(C)c1 [Example 57]	> 10 nM	> 50 nM	1000 to 10000 nM	−2%	−2%	IC50 (SW480 pERK; [1]): 1000 to 10000 nM
COc1ccc(S(=O)(=O)Nc2ccc(F)c(Nc3ncnc4cnc(SC)nc34)c2F)cc1 [Example 1]						IC50 (BRAF; Table 2): > 10 nM; IC50 (CRAF; Table 2): > 50 nM; IC50 (HCT116 pERK; Homo sapiens, HCT-116, Table 2): 10000 to 30000 nM; IC50 (SW480 pERK; Homo sapiens, SW480, Table 2, read-out: SW480 PERK IC50 (UM)): 1000 to 10000 nM; SW480 (Ymin %) (SW480 pERK; Table 2): 6%
Cc1c(F)cccc1S(=O)(=O)Nc1ccc(F)c(Nc2ncnc3cnc(-n4cnc5ccccc54)nc23)c1F [Example 83]	1 to 10 nM	< 10 nM	< 500 nM	−10%	−2%	IC50 (SW480 pERK; [1]): < 500 nM
O=S(=O)(Nc1ccc(F)c(Nc2ncnc3cnc(-n4cnc5ccccc54)nc23)c1F)c1cccc(Cl)c1Cl [Example 81]	< 1 nM	< 10 nM			3%	IC50 (HCT116 pERK; Homo sapiens, HCT-116, Table 3): < 500 nM; IC50 (SW480 pERK; Homo sapiens, SW480, Table 3, read-out: SW480 PERK IC50): < 500 nM
COc1ccc(S(=O)(=O)Nc2ccc(F)c(Nc3ncnc4c(N)nc(-n5cnc6ccccc65)nc34)c2F)c(C)c1 [Example 88]						IC50 (BRAF; Table 4): > 10 nM; IC50 (CRAF; Table 4): > 50 nM; IC50 (HCT116 pERK; Homo sapiens, HCT-116, Table 4): 1000 to 10000 nM; IC50 (SW480 pERK; Homo sapiens, SW480, Table 4, read-out: SW480 PERK IC50): 1000 to 10000 nM; SW480 (Ymin %) (SW480 pERK; Table 4): 2%
O=S(=O)(Nc1ccc(F)c(Nc2ncnc3cnc(-n4cnc5ccccc54)nc23)c1F)c1ccc(Cl)cc1Cl [Example 63]	1 to 10 nM	< 10 nM	1000 to 10000 nM	−2%	1%	IC50 (SW480 pERK; [1]): 1000 to 10000 nM
CCC1(O)CCN(c2cccc3c2ncn3-c2ncc3ncnc(Nc4c(F)ccc(NS(=O)(=O)c5cccc6c5OC(F)(F)O6)c4F)c3n2)CC1 [Example 151]	1 to 10 nM	10 to 50 nM	< 500 nM	10%		
CCC1(O)CCN(c2cccc3c2nnn3-c2ncc3ncnc(Nc4c(F)ccc(NS(=O)(=O)c5cccc(Cl)c5Cl)c4F)c3n2)CC1 [Example 136]	1 to 10 nM	< 10 nM	< 500 nM	19%		
Cc1c(F)cccc1S(=O)(=O)Nc1ccc(F)c(Nc2ncnc3cnc(-n4cc(C(=O)N5CCN(C)CC5)c5ccccc54)nc23)c1F [Example 99]	< 1 nM	10 to 50 nM		(−3.6) %		
O=S(=O)(Nc1ccc(F)c(Nc2ncnc3cnc(-n4cnc5ccccc54)nc23)c1F)c1scc(Cl)c1Cl [Example 157]	< 1 nM	< 10 nM	< 500 nM	0%		
Cc1c(Cl)cccc1S(=O)(=O)Nc1ccc(F)c(Nc2ncnc3cnc(-n4nnc5ccccc54)nc23)c1F [Example 124]	1 to 10 nM	< 10 nM	1000 to 10000 nM	−9%		
Cc1c(Cl)cccc1S(=O)(=O)Nc1ccc(F)c(Nc2ncnc3cnc(-n4cnc5ccccc54)nc23)c1F [Example 127]	1 to 10 nM	< 10 nM	< 500 nM	0%		
COc1ccc(S(=O)(=O)Nc2ccc(F)c(Nc3ncnc4cnc(-n5nnc6ccccc65)nc34)c2F)c(C)c1Cl [Example 117]	> 10 nM	10 to 50 nM	1000 to 10000 nM	−1%		
COc1ccc(S(=O)(=O)Nc2ccc(F)c(Nc3ncnc4cnc(-n5nnc6ccccc65)nc34)c2F)c(C)c1F [Example 118]	> 10 nM	10 to 50 nM	1000 to 10000 nM	−14%		
Cc1c(F)cccc1S(=O)(=O)Nc1ccc(F)c(Nc2ncnc3cnc(-n4cc(C(=O)N5CCC(O)CC5)c5ccccc54)nc23)c1F [Example 102]	< 1 nM	< 10 nM	500 to 1000 nM	−9.5%		
